Where two headings read alike, the source gives them in different places.
Experiments:
HFF cells = assay: Visual cytotoxicity in stationary HFF cells at time of plaque enumeration; assay type: cell-based, human; settings: visual cytotoxicity on HFF cells at time of HCMV plaque enumeration; read-out: 50% Inhibitory Concentration, Cytotoxicity (HFF)
Protocol: (§1) KB cells (available from the American Type Culture Collection (ATCC) 12301 Parklawn Drive, […], Md. 20852 (ATCC CCL 17)), an established human cell line derived from an epidermal oral carcinoma, were grown in minimal essential medium (MEM) (Sigma) with Hanks salts (MEM(H)) supplemented with 5% fetal calf serum. Human foreskin fibroblasts (HFF cells) (provided by the University of Michigan Hospital) and African green monkey kidney cells (BSC-1) (ATTC CCL 26) cells were grown in MEM with Earl salts (MEM(E)) supplemented with 10% fetal bovine serum. Cells were passaged according to conventional procedures and as described in Shipman, C., Jr. et al. (1976) Antimicrob. Agents Chemother. Vol. 9:120 and incorporated herein by reference. Briefly, cells were passaged at 1:2 to 1:10 dilutions according to conventional procedures by using 0.05% trypsin plus 0.02% EDTA in a HEPES buffered salt solution. HFF cells were passaged only at 1:2 dilutions.
(§2) Two different methods were used to evaluate cytotoxicity of the compounds. First, cytotoxicity produced in stationary HFF cells was determined by microscopical examination of cells not affected by the virus used in the plaque assay. Second the effect of compounds on KB cells during two population doubling times was determined by crystal violet staining and spectrophotometric quantitation of dye eluted from stained cells. This method has been utilized for the analysis of ganciclovir and zidovudine (See Prichard, M. N. et al. Antiviral Res. (1991) Vol. 35:1060-1065).
(§3) (3) Visual cytotoxicity was scored on HFF cells at the time of HCMV plaque enumeration. Inhibition of KB cell growth was determined as described in the experimental. 3L was used as a positive control for the KB cytotoxicity assay.

HCMV [1] = settings: background statement; times more active than TCRB; cited from earlier work
HSV-1 = HSV-1 ELISA assay; assay type: cell-based, HSV-1 (KOS strain); settings: read-out: 50% Inhibitory Concentration, Antiviral Activity (ELISA)
Protocol: (§4) A plaque purified isolate, Po, of the Towne strain of HCMV was used in all experiments and was a gift of Dr. Mark Stinski, University of Iowa. The KOS strain of HSV-1 was used and was provided by Dr. Sandra K. Weller, University of Connecticut. Stock preparations of HCMV and HSV-1 were prepared and titered as known to those of skill and the art and described in Turk, S. R. et al. (1987) Antimicrob. Agents Chemother. Vol. 31:544-550 and Shipman, C., Jr., et al. (1990) J. Virol. Methods Vol. 28:101-106, each incorporated herein by reference.
(§5) HCMV plaque reduction experiments were performed with monolayer cultures of HFF cells by a procedure similar to that referenced above for titration of the viruses and described in Devivar, R. V. et al. (1994) J. Med. Chem. Vol. 37:2942-2949. Activity of compounds against HSV-1 was evaluated using an ELISA assay.
ELISA techniques according to standard procedures were also used to determine activity against HSV-1. Drug effects were calculated as a percentage of the reduction in virus titers in the presence of each drug concentration compared to the titer obtained in the absence of drug. Ganciclovir was used as a positive control in all experiments.
(§6) Dose-response relationships can be used to compare drug effects. These are constructed by linearly regressing the percent inhibition of parameters derived in the preceding sections against log drug concentrations. The 50 inhibitory (I50) concentrations were calculated from the regression lines using the methods described by Goldstein. See Goldstein, A., Biostatistics: An Introductory Text, MacMillan, New York, pp. 156-161 (1964), incorporated herein by reference.
(§7) (2) A plaque assay was used to quantitate anti HCMV activity, an ELISA assay was used to quantitate activity against HSV-1. DHPG (ganciclovir) was used as a positive control for the HCMV assay.

KB cells = assay: Inhibition of KB cell growth (crystal violet staining); assay type: cell-based, human; settings: inhibition of KB cell growth; read-out: 50% Inhibitory Concentration, Cytotoxicity (KB)
Protocol: as §1, §2, §3

HCMV [2] = assay: HCMV plaque (focus) reduction assay in HFF cells; assay type: cell-based, HCMV (Towne strain); settings: for IC50: HCMV plaque assay, HFF cells, averages from two or more experiments, read-out: 50% Inhibitory Concentration, Antiviral Activity (plaque); for anti-HCMV activity (in words): Table 1
Protocol: as §4, §5
The effect of compounds of the replication of HCMV was measured using a plaque (focus) reduction assay. For the former, HFF cells in 24-well culture dishes were infected with approximately 50 p.f.u. of HCMV per well using the procedures detailed above. Compounds dissolved in growth medium were added in four to six selected concentrations to duplicate wells following virus adsorption. Following incubation at 37° C. for 7 to 10 days, cell sheets were fixed, stained and microscopic plaques were enumerated as described above. Drug effects were calculated as a percentage of reduction in number of plaques in the presence of each drug concentration compared to the number observed in the absence of drug. DHPG (ganciclovir) was used as a positive control in all experiments.
as §6, §7

[3] = Visual cytotoxicity in stationary HFF cells at time of plaque enumeration; assay type: cell-based, human; settings: human, stationary human foreskin fibroblasts (HFF cells); visual cytotoxicity on HFF cells at time of HCMV plaque enumeration; read-out: 50% Inhibitory Concentration, Cytotoxicity (HFF)
Protocol: as §1, §2, §3

[4] = Inhibition of KB cell growth (crystal violet staining); assay type: cell-based, human; settings: human, KB cells (human epidermal oral carcinoma line); inhibition of KB cell growth; read-out: 50% Inhibitory Concentration, Cytotoxicity (KB)
Protocol: as §1, §2, §3

L1210 cells = assay: Antiproliferative activity: growth of L1210 cells; assay type: cell-based, mouse; settings: concentration required to decrease final growth rate of L1210 cells to half of control rate, read-out: 50% Inhibitory Concentration, Antiproliferative Activity
Protocol: Antiproliferative activity was evaluated by measuring the effect of the compounds on the growth of L1210 cells, a mouse leukemia cell line which is generally available and can be obtained from Cancer Chemotherapy Center, Japanese Foundation for Cancer Research. Antiproliferative activity was measured using conventional procedures and as described in Wotring, L. L. and Townsend, L. B., (1979) Cancer Res. Vol. 39:3018-3023 and Cory, A. H. et al. (1991) Cancer Comm. Vol. 3:207-212, each incorporated herein by reference.
(8) The concentration required to decrease the final growth rate of L1210 cells to half of the control rate. All values are averages from two or more experiments.

[5] = averages from two or more experiments
[6] = Human alphaherpesvirus 1, averages from two or more experiments

Row | SMILES | IC50 (HFF cells) [µM] | activity relative to TCRB (HCMV [1]) | IC50 (HSV-1; [5]) [µM] | IC50 (KB cells) [µM] | IC50 (HCMV [2]) [µM] | IC50 [3] [µM] | IC50 (HSV-1; [6]) [µM] | IC50 at 2 population doubling times [4] [µM] | IC50 (HCMV [2]; Human betaherpesvirus 5, HFF) [µM] | melting point [°C] | anti-HCMV activity (in words) (HCMV [2]) | IC50 (L1210 cells) [µM] | IC50 (L1210 cells; Mus musculus) [µM]
1 | C[C@H]1O[C@@H](n2c(Cl)nc3cc(Cl)c(Cl)cc32)[C@H](O)[C@@H]1O [Compound 2, 2,5,6-trichloro-1-(5′-deoxy-β-D-ribofuranosyl)benzimidazole, reference compound] | 77 | about 10 times | > 100 | 150 | 0.36 |  |  |  |  |  |  |  | 
2 | CCOC[C@H]1O[C@@H](n2c(Cl)nc3cc(Cl)c(Cl)cc32)[C@H](OC(C)=O)[C@@H]1OC(C)=O [Compound 7b, 2,5,6-trichloro-1-(2′,3′-di-O-acetyl-5′-O-ethyl-β-D-ribofuranosyl)benzimidazole] |  |  |  |  |  | 33 | > 100 | 60 | 4.3 | 125 to 126 |  |  | 
3 | CCCCCCOC[C@H]1O[C@@H](n2c(Cl)nc3cc(Cl)c(Cl)cc32)[C@H](OC(C)=O)[C@@H]1OC(C)=O [Compound 7d, 2,5,6-trichloro-1-(2′,3′-di-O-acetyl-5′-O-hexyl-β-D-ribofuranosyl)benzimidazole] |  |  |  |  |  | 32 | > 100 | 60 | 8 | 98 to 100 | decreased activity over the butyl compound (7c) |  | 
4 | CSC[C@H]1O[C@@H](n2c(Cl)nc3cc(Cl)c(Cl)cc32)[C@H](O)[C@@H]1O [Compound 17b, 2,5,6-trichloro-1-(5′-deoxy-5′-methylthio-β-D-ribofuranosyl)benzimidazole] | 32 |  | > 100 | > 100 | 4.5 |  |  |  |  |  | equally active as the 5′-O-ethyl derivative (8b) | > 100 | 
5 | COC[C@H]1O[C@@H](n2c(Cl)nc3cc(Cl)c(Cl)cc32)[C@H](OC(C)=O)[C@@H]1OC(C)=O [Compound 7a, 2,5,6-trichloro-1-(2′,3′-di-O-acetyl-5′-O-methyl-β-D-ribofuranosyl)benzimidazole] |  |  |  |  |  | 26 | > 100 | 80 | 2.8 | 150 to 151 |  |  | 
6 | COC[C@H]1O[C@@H](n2c(Cl)nc3cc(Cl)c(Cl)cc32)[C@H](O)[C@@H]1O [Compound 8a, 2,5,6-trichloro-1-(5′-O-methyl-β-D-ribofuranosyl)benzimidazole] |  |  |  |  |  | 26 | > 100 | 90 | 3 | 104 to 105 |  |  | 60
7 | CCOC[C@H]1O[C@@H](n2c(Cl)nc3cc(Cl)c(Cl)cc32)[C@H](O)[C@@H]1O [Compound 8b, 2,5,6-trichloro-1-(5′-O-ethyl-β-D-ribofuranosyl)benzimidazole] |  |  |  |  |  | 26 | > 100 | 80 | 4.6 | 88 to 90 |  |  | 59
8 | CCCCOC[C@H]1O[C@@H](n2c(Cl)nc3cc(Cl)c(Cl)cc32)[C@H](OC(C)=O)[C@@H]1OC(C)=O [Compound 7c, 2,5,6-trichloro-1-(2′,3′-di-O-acetyl-5′-O-butyl-β-D-ribofuranosyl)benzimidazole] |  |  |  |  |  | 66 | > 100 | > 100 | 21 | 143 to 144 |  |  | 
9 | CCCCOC[C@H]1O[C@@H](n2c(Cl)nc3cc(Cl)c(Cl)cc32)[C@H](O)[C@@H]1O [Compound 8c, 2,5,6-trichloro-1-(5′-O-butyl-β-D-ribofuranosyl)benzimidazole] |  |  |  |  |  | 32 | > 100 | 60 | 14.2 | 70 to 72 |  |  | > 100
